The assay has as its system endophytic fungi. Description: control of endophyte growth in in vitro shoot culture media. Type of assay: cell-based. To be noted: 54 μM in DSIM culture medium of Miscanthus x giganteus; compared with vancomycin hydrochloride 0, 13.5, 27, 41.5 μM and tetracycline hydrochloride 20.8 or 52 μM.

Counter-ions that a name gives are not always drawn.

As for `CN[C@H](CC(C)C)C(=O)N[C@H]1C(=O)N[C@@H](CC(N)=O)C(=O)N[C@H]2C(=O)N[C@H]3C(=O)N[C@H](C(=O)N[C@H](C(=O)O)c4cc(O)cc(O)c4-c4cc3ccc4O)[C@H](O)c3ccc(c(Cl)c3)Oc3cc2cc(c3O[C@@H]2O[C@H](CO)[C@@H](O)[C@H](O)[C@H]2O[C@H]2C[C@](C)(N)[C@H](O)[C@H](C)O2)Oc2ccc(cc2Cl)[C@H]1O` [vancomycin, vancomycin hydrochloride], the “controlling the growth of endophytic fungi in the culture media” value is “more effective”.

These data come from US12245562B2, “System for rapid, robust, and efficient in vitro mass propagation of Miscanthus x giganteus” (Delaware State University, priority 2017, dated 2025).
